This assay concerns the target T1, UCP1 (Mus musculus, UniProt P12242).
T1 construct: Cellular oxygen consumption and UCP1-rependent respiration of primary brown adipocytes; endogenous in cells; host or cells: primary brown adipocytes differentiated from the interscapular brown adipose stromal vascular fraction of 2- to 6-day-old pups
T1 sequence (P12242 1-307): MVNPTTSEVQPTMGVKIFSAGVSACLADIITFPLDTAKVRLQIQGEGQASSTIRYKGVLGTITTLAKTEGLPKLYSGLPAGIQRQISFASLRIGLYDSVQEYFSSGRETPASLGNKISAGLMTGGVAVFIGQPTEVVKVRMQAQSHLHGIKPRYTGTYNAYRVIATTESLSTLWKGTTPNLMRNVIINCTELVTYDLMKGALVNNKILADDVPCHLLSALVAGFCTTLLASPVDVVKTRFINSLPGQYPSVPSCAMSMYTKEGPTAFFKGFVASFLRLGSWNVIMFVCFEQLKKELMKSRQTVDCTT
Briefly: UCP1-dependent respiration in primary brown adipocytes (Seahorse XF24 oxygen consumption). The format is cell-based. Conditions: wild-type primary brown adipocytes; MYF compounds at 100 uM. How it is done:
Primary brown adipocyte preparation and differentiation. Interscapular brown adipose stromal vascular fraction was obtained from 2- to 6-day-old pups as described in PMID: 30022159. Interscapular brown adipose was dissected, washed in PBS, minced, and digested for 45 min at 37° C. in PBS containing 1.5 mg ml^−1 collagenase B, 123 mM NaCl, 5 mM KCl, 1.3 mM CaCl2, 5 mM glucose, 100 mM HEPES, and 4% essentially fatty-acid-free BSA. Tissue suspension was filtered through a 40 µm cell strainer and centrifuged at 600 g for 5 min to pellet the SVF. The cell pellet was resuspended in adipocyte culture medium and plated. Cells were maintained at 37° C. in 10% CO2. Primary brown pre-adipocytes were counted and plated in the evening, 12 h before differentiation at 15,000 cells per well of a seahorse plate. Pre-adipocyte plating was scaled according to surface area. […]
Direct measure of UCP1-dependent respiration in brown adipocytes. […] Basal respiration was determined to be the oxygen consumption in the presence of substrate (1 mM sodium pyruvate) alone. Following determination of basal respiration, MYF compounds at 100 uM or vehicle was added to the cells and the respiration response measured immediately. […] Maximal respiration capacity was determined following addition of DNP (2 mM). […]

Take `C=CC(=O)Nc1cc(-c2ccncc2)ccc1C(=O)OC` [CP-A16, methyl 2-acrylamido-4-(pyridin-4-yl)benzoate]: the UCP-1-dependent respiration entry is listed as “activation”.

With `CCC(=O)Nc1cc(-c2ccnnc2)sc1C(=O)OC` [ZNL-06-123], the UCP-1-dependent respiration result was “activation”.
